Laboratory results as given in ChEMBL document CHEMBL6087434, “An Activatable Heavy-Atom-Free Upconversion Photosensitizer for Targeted Imaging and Treatment of Tumors” (J Med Chem, 2024).
Values belong to the compound of their own block, whether it stands above or below them. Active and inactive are the calls of the source. No cut-off for these calls is given here.

Legend:
[1] = Induction of singlet oxygen quantum yield under 808 nm light irradiation by DPBF based assay; type: functional
A549 [2] = assay: Induction of apoptosis in human A549 cells under 808 nm light irradiation by Annexin V-FITC/PI staining based flow cytometry; type: functional, cell-based
[3] = Induction of singlet oxygen quantum yield assessed as decrease in absorption signal under 415 nm light irradiation measured after 15 mins by DPBF based assay; type: functional; set-up: scale not given: the % may be the effect or the level left
A549 [4] = assay: Induction of singlet oxygen production in human A549 cells by DCF-DA probe based analysis; type: functional, cell-based
[5] = Induction of singlet oxygen quantum yield under 808 nm light irradiation in presence of NTR by DPBF based assay; type: functional
[6] = Photostability of compound upto 2 W/cm2 measured for 8 mins; type: physicochemical
A549 [7] = assay: Cytotoxicity against human A549 cells under near-infra red light irradiation; type: functional, cell-based
A549 [8] = assay: Cytotoxicity against NAC-treated human A549 cells by DCF-DA probe based analysis; type: functional, cell-based
[9] = Drug metabolism in human L02 cells assessed as NTR-mediated metabolism at 10 uM incubated for 30 mins by DAPI staining based CLSM analysis; type: ADME, cell-based; settings: l02, 0.5 h
4T1 [10] = assay: Cytotoxicity against mouse 4T1 cells assessed as survival rate under laser light irradiation at 2.5 uM measured after 12 hrs by MTT assay relative to control; type: functional; settings: 4T1, light or radiation study, read-out: Survival
[11] = Toxicity in mouse model xenografted with human A549 cells assessed as body weight change at 300 uM, iv measured for 14 days; type: organism-based; settings: 336 h, time 14 day
A549 [12] = assay: Cytotoxicity against human A549 cells under 808 nm light irradiation by DCF-DA probe based analysis; type: functional, cell-based
4T1 [13] = assay: Cytotoxicity against mouse 4T1 cells assessed as survival rate under absence of light upto 10 uM measured after 12 hrs by MTT assay relative to control; type: functional; settings: up to 10 µM
A549 [14] = assay: Inhibition of cell migration in human A549 cells under 808 nm light irradiation measured for 18 hrs by wound healing assay; type: functional, cell-based
A549 [15] = assay: Antitumor activity against human A549 cells xenografted in mouse model assessed as cellular structural damage at 300 uM, iv administered every other day under laser light irradiation measured after 14 days by H and E staining based analysis; type: functional, organism-based; settings: time 14.0 day
A549 [16] = assay: Cytotoxicity against human A549 cells assessed as survival rate under absence of light upto 10 uM measured after 12 hrs by MTT assay relative to control; type: functional; settings: up to 10 µM
4T1 [17] = assay: Cytotoxicity against mouse 4T1 cells assessed as survival rate under laser light irradiation measured after 12 hrs by MTT assay; type: functional, cell-based; settings: dose <= 10.0 µM
HeLa [18] = assay: Cytotoxicity against human HeLa cells assessed as survival rate under absence of light upto 10 uM measured after 12 hrs by MTT assay relative to control; type: functional; settings: up to 10 µM
[19] = Drug metabolism in human A549 cells assessed as NTR-mediated metabolism under 5 percent oxygen at 10 uM incubated for 30 mins by DAPI staining based CLSM analysis; type: ADME, cell-based; settings: a549, 0.5 h
[20] = Drug localization in human A549 cells assessed as co-localization co-efficient at 10 uM by LysoTracker Green DND-2 dye based analysis; type: ADME, cell-based; settings: a549, 10 µM
A549 [21] = assay: Cytotoxicity against human A549 cells assessed as survival rate under laser light irradiation measured after 12 hrs by MTT assay; type: functional, cell-based; settings: dose <= 10.0 µM
[22] = Toxicity in mouse model xenografted with human A549 cells assessed as damage in spleen at 300 uM, iv measured after 14 days by H and E staining based analysis; type: organism-based; settings: 336 h, time 14 day
A549 [23] = assay: Cytotoxicity against human A549 cells assessed as survival rate under laser light irradiation at 2.5 uM measured after 12 hrs by MTT assay relative to control; type: functional; settings: A549, light or radiation study, read-out: Survival
HeLa [24] = assay: Cytotoxicity against human HeLa cells assessed as survival rate under laser light irradiation at 10 uM measured after 12 hrs by MTT assay relative to control; type: functional; settings: light or radiation study, read-out: Survival
HeLa [25] = assay: Cytotoxicity against human HeLa cells assessed as survival rate under laser light irradiation measured after 12 hrs by MTT assay; type: functional, cell-based; settings: dose <= 10.0 µM
[26] = Toxicity in mouse model xenografted with human A549 cells assessed as damage in liver at 300 uM, iv measured after 14 days by H and E staining based analysis; type: organism-based; settings: 336 h, time 14 day
A549 [27] = assay: Antitumor activity against human A549 cells xenografted in mouse model assessed as decrease in tumor re-occurence at 300 uM, iv administered every other day under laser light irradiation measured after 14 days during observation period; type: functional, organism-based; settings: time 14.0 day
[28] = Toxicity in mouse model xenografted with human A549 cells assessed as damage in lung at 300 uM, iv measured after 14 days by H and E staining based analysis; type: organism-based; settings: 336 h, time 14 day
A549 [29] = assay: Antitumor activity against human A549 cells xenografted in mouse model assessed as presence of necrotic cells at 300 uM, iv administered every other day under laser light irradiation measured after 14 days by H and E staining based analysis; type: functional, organism-based; settings: time 14.0 day
A549 [30] = assay: Cytotoxicity against human A549 cells assessed as survival rate under laser light irradiation at 10 uM measured after 12 hrs by MTT assay relative to control; type: functional; settings: A549, light or radiation study, read-out: Survival
[31] = Toxicity in mouse model xenografted with human A549 cells assessed as damage in kidney at 300 uM, iv measured after 14 days by H and E staining based analysis; type: organism-based; settings: 336 h, time 14 day
HeLa [32] = assay: Cytotoxicity against human HeLa cells assessed as survival rate under laser light irradiation at 2.5 uM measured after 12 hrs by MTT assay relative to control; type: functional; settings: light or radiation study, read-out: Survival
[33] = Drug metabolism assessed as NTR(unknown origin)-mediated metabolism under 745 nm light irradiation by fluorescence based analysis; type: ADME; settings: human
A549 [34] = assay: Antitumor activity against human A549 cells xenografted in mouse model assessed as tumor growth inhibition at 300 uM, iv administered every other day under laser light irradiation for 14 days; type: functional, organism-based; settings: time 14.0 day
[35] = Toxicity in mouse model xenografted with human A549 cells assessed as damage in heart at 300 uM, iv measured after 14 days by H and E staining based analysis; type: organism-based; settings: 336 h, time 14 day
[36] = Drug localization in human HeLa cells assessed as co-localization co-efficient at 10 uM by LysoTracker Green DND-2 dye based analysis; type: ADME, cell-based
A549 [37] = assay: Antitumor activity against human A549 cells xenografted in mouse model assessed as tumor disappearance at 300 uM, iv administered every other day under laser light irradiation for 14 days relative to control; type: functional; settings: time 14 day
[38] = Drug uptake in human A549 cells xenografted in mouse model at 300 uM, iv measured after 2 hrs by fluorescence based imaging analysis; type: ADME, organism-based; settings: in vivo
A549 [39] = assay: Induction of singlet oxygen production in human A549 cells under 808 nm light irradiation by DCF-DA probe based analysis; type: functional, cell-based
4T1 [40] = assay: Cytotoxicity against mouse 4T1 cells assessed as survival rate under laser light irradiation at 10 uM measured after 12 hrs by MTT assay relative to control; type: functional; settings: 4T1, light or radiation study, read-out: Survival
[41] = Drug metabolism in human A549 cells assessed as NTR-mediated metabolism under 10 to 20 percent oxygen at 10 uM incubated for 30 mins by confocal fluorescence imaging based analysis; type: ADME, cell-based; settings: a549, 0.5 h
[42] = Drug uptake in mouse model xenografted with human A549 cells at 300 uM, iv measured after 90 mins by fluorescence based imaging analysis; type: ADME, organism-based; settings: in vivo, 1.5 h
[43] = Drug metabolism in human HeLa cells assessed as NTR-mediated metabolism at 10 uM incubated for 30 mins by DAPI staining based CLSM analysis; type: ADME, cell-based; settings: 0.5 h
[44] = Drug metabolism in human A549 cells assessed as NTR-mediated metabolism at 10 uM incubated for 30 mins by DAPI staining based CLSM analysis; type: ADME, cell-based; settings: a549, 0.5 h

Compound: CC[N+]1=C(/C=C/C2=C3Oc4cc(N)ccc4C=C3CCC2)C(C)(C)c2ccccc21
Activity [1]: 0.005

Stability [6]: Stable
Compound: CC[N+]1=C(/C=C/C2=C3Oc4cc(NC)ccc4C=C3CCC2)C(C)(C)c2c1ccc1ccccc21.[I-]
Activity (A549 [2]): Active
Activity [3]: 74.7%
Activity (A549 [4]): Active
Activity [1]: 0.059
Activity [5]: inactive
Activity (A549 [7]): Active
Activity (A549 [8]): inactive

Drug metabolism [9]: metabolite_detected
Compound: COBALTOUS CHLORIDE

Compound: CC[N+]1=C(/C=C/C2=C3Oc4cc(N(C)C(=O)OCc5ccc([N+](=O)[O-])cc5)ccc4C=C3CCC2)C(C)(C)c2c1ccc1ccccc21.I
viability at 2.5 µM (4T1 [10]): < 80%
Activity [11]: Non-toxic
Activity (A549 [2]): Active
Activity (A549 [12]): Active
Survival (4T1 [13]): >85%
inhibition (A549 [14]): Active
Activity (A549 [15]): Active
Survival (A549 [16]): >85%
Activity (4T1 [17]): Dose-dependent-effect
Survival (HeLa [18]): >85%
Drug metabolism [19]: metabolite_detected
Activity [20]: 0.9
Activity (A549 [21]): Dose-dependent-effect
Activity [22]: Non-toxic
viability at 2.5 µM (A549 [23]): < 80%
viability at 10 µM (HeLa [24]): < 40%
Activity (HeLa [25]): Dose-dependent-effect
Activity [26]: Non-toxic
Activity (A549 [27]): Active
Activity [28]: Non-toxic
Activity (A549 [29]): Active
viability at 10 µM (A549 [30]): < 40%
Activity [31]: Non-toxic
viability at 2.5 µM (HeLa [32]): < 80%
Drug metabolism [33]: metabolite_detected
inhibition (A549 [34]): Active
Activity [35]: Non-toxic
Activity [36]: 0.88
Activity (A549 [37]): ~100%
Drug uptake [38]: Active
Activity (A549 [39]): Active
viability at 10 µM (4T1 [40]): < 40%
Drug metabolism [41]: metabolite_notdetected
Drug uptake [42]: Active

Compound: CC[N+]1=C(/C=C/C2=C3Oc4cc(N)ccc4C=C3CCC2)C(C)(C)c2c1ccc1ccccc21
Activity [1]: 0.008

Compound: CC[N+]1=C(/C=C/C2=C3Oc4cc(O)ccc4C=C3CCC2)C(C)(C)c2ccccc21
Activity [1]: 0.002

Drug metabolism [43]: metabolite_notdetected
Drug metabolism [44]: metabolite_notdetected
Compound: O=c1oc2ccccc2c(O)c1Cc1c(O)c2ccccc2oc1=O [DICUMAROL]
Activity (A549 [12]): inactive
Activity (A549 [39]): inactive

Compound: CC[N+]1=C(/C=C/C2=C3Oc4cc(NC)ccc4C=C3CCC2)C(C)(C)c2ccccc21
Activity [1]: 0.005

Compound: CC[N+]1=C(/C=C/C2=C3Oc4cc(O)ccc4C=C3CCC2)C(C)(C)c2c1ccc1ccccc21
Activity [1]: 0.002
